In patent US20170114070A1, “INHIBITORS OF THE WNT SIGNALLING PATHWAYS” (Bayer Pharma Aktiengesellschaft, priority 2014, published 2017):
pIC50: −log10 of the molar value. Counter-ions that a name gives are not always drawn.

How the values were obtained:
[1] = system: constitutive active Wnt pathway (HCT116 TOPFlash); experiment: Cellular reporter assay, HCT116 Super TopFlash (constitutive active Wnt pathway); format: cell-based; conditions: Homo sapiens, HCT-116; HCT116 stably transfected with Super TopFlash vector; 36 hours incubation; luciferase expression
Procedure: In order to discover and characterize small molecules which inhibit the constitutive active colorectal cancer cell (CRC) Wnt pathway, a cellular reporter assay was employed. The corresponding assay cell was generated by transfection of the colorectal cancer cell line HCT116 (ATCC, #CCL-247) with the Super TopFlash vector (Morin, Science 275, 1997, 1787-1790; Molenaar et al., Cell 86 (3), 1996, 391-399). The HCT116 cell line is cultivated at 37° C. and 5% CO2 in DMEM/F-12 (Life Technologies, #11320-074), supplemented with 2 mM glutamine, 20 mM HEPES, 1.4 mM pyruvate, 0.15% Na-bicarbonate and 10% foetal bovine serum (GIBCO, #10270), this cancer cell line is pathophysiological relevant since it carries a deletion of position S45 in the β-catenin gene, leading to constitutive active Wnt signaling. Stable transfectants were generated by cotransfection with pcDNA3 and selection of stable transfected cells with 1 mg/ml G418.
(§1) In a parallel approach, HCT116 cells were cotransfected with the FOP control vector and pcDNA3. The FOP vector is identical to the TOP construct, but it contains instead of functional TCF elements a randomized, non-functional sequence. For this transfection a stable transfected cell line was generated as well.
(§2) In preparation of the assay, the two cell lines were plated 24 hours before at 10000 cells per well of a 384 micro titre plate (MTP) in 30 μL growth medium. Selective inhibitory activity for small molecules on the mutated Wnt pathway was determined after parallel incubation of both (TOP and FOP) HCT116 reporter cell lines with a compound dilution series from 50 μM to 15 nM in steps of 3.16-fold dilutions in CAFTY buffer (130 mM NaCl, 5 mM KCl, 20 mM HEPES, 1 mM MgCl2, 5 mM NaHCO3, pH 7.4) containing 2 mM Ca^2+ and 0.01% BSA. The compounds were thereby serially prediluted in 100% DMSO and thereafter in addition 50 fold into the CAFTY compound dilution buffer (described above). From this dilution 10 μL were added to the cells in 30 μL growth medium and incubated for 36 hours at 37° C. and 5% CO2. Thereafter luciferase assay buffer (1:1 mixture of luciferase substrate buffer (20 mM Tricine, 2.67 mM MgSO4, 0.1 mM EDTA, 4 mM DTT, 270 μM Coenzyme A, 470 μM Luciferin, 530 μM ATP, ph adjusted to pH 7.8 with a sufficient volume of 5M NaOH) and Triton buffer (30 mL Triton X-100, 115 mL glycerol, 308 mg Dithiothreitol, 4.45 g Na2HPO4.2H2O, 3.03 g TRIS HCl, ad 1 l H20, pH 7.8) was added as equal volume to the compound solution on the cells to determine luciferase expression as a measure of Wnt signaling activity in a luminometer.

[2] = system: HCT116 FOPFlash (FOP control vector, non-functional TCF elements); experiment: Cellular control reporter assay, HCT116 FOP control vector; format: cell-based; conditions: Homo sapiens, HCT-116; HCT116 stably transfected with FOP control vector; 36 hours incubation; luciferase expression; dilution series from 50 μM
Procedure: as §1, §2

Row | pIC50 [1] | pIC50 [2] | SMILES
1 | 5.62 | ≤ 4.30 | O=C(CN1CCOCC1)Nc1cc(C(=O)Nc2cnc(-c3cnccn3)cn2)ccc1OC(F)(F)F [Example 57, N-(2,2′-bipyrazin-5-yl)-3-[(morpholin-4-ylacetyl)amino]-4-(trifluoromethoxy)benzamide]
2 | 6.59 | 5.11 | CN1CCN(CC(=O)Nc2cc(C(=O)Nc3cnc(-c4cccc(Cl)c4)cn3)ccc2OC(F)(F)F)CC1 [Example 48, N-[5-(3-chlorophenyl)pyrazin-2-yl]-3-{[(4-methylpiperazin-1-yl)acetyl]amino}-4-(trifluoromethoxy)benzamide]
3 | 6.92 | ≤ 4.30 | Cc1ccccc1-c1cnc(NC(=O)c2ccc(OC(F)(F)F)c(NC(=O)CN3CCN(C)CC3)c2)cn1 [Example 42, N-[5-(2-methylphenyl)pyrazin-2-yl]-3-{[(4-methylpiperazin-1-yl)acetyl]amino}-4-(trifluoromethoxy)benzamide]
4 | 6.81 | 4.56 | CN1CCN(CC(=O)Nc2cc(C(=O)Nc3cnc(-c4cc(F)cc(F)c4)cn3)ccc2OC(F)(F)F)CC1 [Example 43, N-[5-(3,5-difluorophenyl)pyrazin-2-yl]-3-{[(4-methylpiperazin-1-yl)acetyl]amino}-4-(trifluoromethoxy)benzamide]
5 | 4.80 | ≤ 4.30 | O=C(CN1CCOCC1)Nc1cc(C(=O)Nc2cnc(-c3cccc(F)c3)cn2)ccc1OC(F)(F)F [Example 63, N-[5-(3-fluorophenyl)pyrazin-2-yl]-3-[(morpholin-4-ylacetyl)amino]-4-(trifluoromethoxy)benzamide]
6 | 7.61 | ≤ 4.30 | CN1CCN(CC(=O)Nc2cc(C(=O)Nc3ccc(-c4ccc(N)nc4)nn3)ccc2OC(F)(F)F)CC1 [Example 1, N-[6-(6-aminopyridin-3-yl)pyridazin-3-yl]-3-{[(4-methylpiperazin-1-yl)acetyl]amino}-4-(trifluoromethoxy)benzamide]
7 | 7.76 | ≤ 4.30 | CN1CCN(CC(=O)Nc2cc(C(=O)Nc3ccc(-c4cccnc4)nn3)ccc2OC(F)(F)F)CC1 [Example 4, 3-{[(4-methylpiperazin-1-yl)acetyl]amino}-N-[6-(pyridin-3-yl)pyridazin-3-yl]-4-(trifluoromethoxy)benzamide]
8 | 6.62 | 5.39 | Cc1cccc(-c2cnc(NC(=O)c3ccc(OC(F)(F)F)c(NC(=O)CN4CCOCC4)c3)cn2)c1 [Example 47, N-[5-(3-methylphenyl)pyrazin-2-yl]-3-[(morpholin-4-ylacetyl)amino]-4-(trifluoromethoxy)benzamide]
9 | 7.80 | 4.70 | CN1CCN(CC(=O)Nc2cc(C(=O)Nc3ncc(-c4ccccc4)nn3)ccc2OC(F)(F)F)CC1 [Example 18, 3-{[(4-methylpiperazin-1-yl)acetyl]amino}-N-(6-phenyl-1,2,4-triazin-3-yl)-4-(trifluoromethoxy)benzamide]
10 | 4.77 | ≤ 4.30 | CN1CCN(CC(=O)Nc2cc(C(=O)Nc3cnc(-c4ccccc4Cl)cn3)ccc2OC(F)(F)F)CC1 [Example 44, N-[5-(2-chlorophenyl)pyrazin-2-yl]-3-{[(4-methylpiperazin-1-yl)acetyl]amino}-4-(trifluoromethoxy)benzamide]
11 | 4.78 | ≤ 4.30 | O=C(CN1CCOCC1)Nc1cc(C(=O)Nc2cnc(-c3cncnc3)cn2)ccc1OC1CC1 [Example 27, 4-(cyclopropyloxy)-3-[(morpholin-4-ylacetyl)amino]-N-[5-(pyrimidin-5-yl)pyrazin-2-yl]benzamide]
12 | 4.90 | 4.59 | N=S1(=O)CCN(CC(=O)Nc2cc(C(=O)Nc3ccc(-c4ccccc4)nn3)ccc2OC(F)(F)F)CC1 [Example 62]
13 | 7.77 | 4.96 | CN1CCN(CC(=O)Nc2cc(C(=O)Nc3cnc(-c4ccccc4)cn3)ccc2OC2CC2)CC1 [Example 21, 4-(cyclopropyloxy)-3-{[(4-methylpiperazin-1-yl)acetyl]amino}-N-(5-phenylpyrazin-2-yl)benzamide]
14 | 7.70 | ≤ 4.30 | O=C(CN1CCOCC1)Nc1cc(C(=O)Nc2ccc(-c3ccccc3)nn2)ccc1OC(F)(F)F [Example 7, 3-[(morpholin-4-ylacetyl)amino]-N-(6-phenylpyridazin-3-yl)-4-(trifluoromethoxy)benzamide]
15 | 6.38 | ≤ 4.30 | O=C(CN1CCOCC1)Nc1cc(C(=O)Nc2ccc(-c3cccnc3F)nn2)ccc1OC(F)(F)F [Example 17, N-[6-(2-fluoropyridin-3-yl)pyridazin-3-yl]-3-[(morpholin-4-ylacetyl)amino]-4-(trifluoromethoxy)benzamide]
16 | 6.92 | ≤ 4.30 | CN1CCN(CC(=O)Nc2cc(C(=O)Nc3ccc(-c4cccnc4F)nn3)ccc2OC(F)(F)F)CC1 [Example 12, N-[6-(2-fluoropyridin-3-yl)pyridazin-3-yl]-3-{[(4-methylpiperazin-1-yl)acetyl]amino}-4-(trifluoromethoxy)benzamide]
17 | 4.77 | ≤ 4.30 | O=C(CN1CCOCC1)Nc1cc(C(=O)Nc2cnc(-c3ccccn3)cn2)ccc1OC1CC1 [Example 50, 4-(cyclopropyloxy)-3-[(morpholin-4-ylacetyl)amino]-N-[5-(pyridin-2-yl)pyrazin-2-yl]benzamide]
18 | 6.92 | ≤ 4.30 | CN1CCN(CC(=O)Nc2cc(C(=O)Nc3cnc(-c4cccnc4F)cn3)ccc2OC(F)(F)F)CC1 [Example 36, N-[5-(2-fluoropyridin-3-yl)pyrazin-2-yl]-3-{[(4-methylpiperazin-1-yl)acetyl]amino}-4-(trifluoromethoxy)benzamide hydrochloride]
19 | 6.08 | ≤ 4.30 | O=C(CN1CCOCC1)Nc1cc(NC(=O)c2cnc(-c3ccccc3)cn2)ccc1OC(F)(F)F [Example 6, N-{3-[(morpholin-4-ylacetyl)amino]-4-(trifluoromethoxy)phenyl}-5-phenylpyrazine-2-carboxamide]
20 | 7.84 | ≤ 4.30 | O=C(Nc1cnc(-c2ccccc2)cn1)c1ccc(OC(F)(F)F)c(NC(=O)C2(N3CCOCC3)CC2)c1 [Example 20, 3-({[1-(morpholin-4-yl)cyclopropyl]carbonyl}amino)-N-(5-phenylpyrazin-2-yl)-4-(trifluoromethoxy)benzamide]
21 | ≤ 4.30 | ≤ 4.30 | O=C(CN1CCOCC1)Nc1cc(C(=O)Nc2cnc(-c3ccccn3)cn2)ccc1OC(F)(F)F [Example 61, 3-[(morpholin-4-ylacetyl)amino]-N-[5-(pyridin-2-yl)pyrazin-2-yl]-4-(trifluoromethoxy)benzamide]
22 | 4.78 | 4.40 | Cc1cccc(-c2cnc(NC(=O)c3ccc(OC(F)(F)F)c(NC(=O)CN4CCN(C)CC4)c3)cn2)c1 [Example 32, N-[5-(3-methylphenyl)pyrazin-2-yl]-3-{[(4-methylpiperazin-1-yl)acetyl]amino}-4-(trifluoromethoxy)benzamide]
23 | 6.94 | 4.50 | O=C(CN1CCOCC1)Nc1cc(C(=O)Nc2cnc(-c3ccccc3Cl)cn2)ccc1OC(F)(F)F [Example 33, N-[5-(2-chlorophenyl)pyrazin-2-yl]-3-[(morpholin-4-ylacetyl)amino]-4-(trifluoromethoxy)benzamide]
24 | 7.77 | 4.42 | CN1CCN(CC(=O)Nc2cc(C(=O)Nc3cnc(-c4cccnc4)cn3)ccc2OC(F)(F)F)CC1 [Example 22, 3-{[(4-methylpiperazin-1-yl)acetyl]amino}-N-[5-(pyridin-3-yl)pyrazin-2-yl]-4-(trifluoromethoxy)benzamide]
25 | 6.59 | ≤ 4.30 | CN1CCN(CC(=O)Nc2cc(C(=O)Nc3cnc(-c4cncnc4)cn3)ccc2OC(F)(F)F)CC1 [Example 49]
26 | 7.36 | ≤ 4.30 | Nc1ccc(-c2ccc(NC(=O)c3ccc(OC(F)(F)F)c(NC(=O)CN4CCOCC4)c3)nn2)cn1 [Example 16, N-[6-(6-aminopyridin-3-yl)pyridazin-3-yl]-3-[(morpholin-4-ylacetyl)amino]-4-(trifluoromethoxy)benzamide]
